The subject of data set [1] is LNCaP cells. Put plainly: Cell proliferation (cell number per dish). It counts as cell-based, human. The note with it: for effect on proliferation in cells treated with the sAC inhibitor KH7: co-treatment with KH7, 24 hours; for effect on proliferation: LNCaP control cells, H-89 3 μmol/L, RpcAMP 100 μmol/L. On the procedure: (§1) FIG. 2 is a graph which illustrates experimental data depicting the effects of the sAC inhibitor KH7 on prostate cancer cell proliferation. Statistical analyses are presented for cellular cAMP content and cell number per dish (starting density: 150,000 cells/dish) 24 hours after KH7 treatment. Values are the mean±SEM (n=5-8). *p<0.05 vs. 0 μmol/L KH7.
(§2) FIG. 3A is an image depicting data from Western blot analysis of lysates of LNCaP cells after treatment with sAC-specific or scrambled siRNA for 72 hours (left panel) or after treatment with sAC-specific or scrambled shRNA for 72 hours (right panel). FIGS. 3B-D are graphs and images which illustrate experimental data depicting the effects of siRNA or shRNA transfection on cell proliferation (FIG. 3B), LDH activity in the cell culture medium (relative units (r.u.)) (FIG. 3C), and cleavage of caspase-3 (FIG. 3D). […] The Western blot data are representative of five independent experiments with similar results.
(§3) FIGS. 5A-5E are graphs and images which illustrate experimental data depicting that sAC controls proliferation and the cell cycle in a PKA-independent and EPAC-dependent manner. FIGS. 5A-5C are graphs depicting statistical analyses of cell number per dish (FIG. 5A), LDH activity in the cell culture medium (relative units (r.u.)) (FIG. 5B), and G2 phase populations (FIG. 5C). Treatments (all 24 hours) were as follows: […], 100 mol/liter 8-pCPT-cAMP (8-pCPT), 100 mol/liter N6-benzoyl-cAMP (6-Bnz), 3 mol/liter H-89, or 100 mol/liter (Rp)-cAMP-S(RpcAMP). […] FIGS. 5D and 5E are images depicting Western blot analysis of the active form of Rap1 (Rap1-GTP) and phosphorylated forms of B-Raf performed with LNCaP cell lysates. Treatment conditions were similar to those described for FIGS. 5A-5C. Treatment was performed for 18 hours. All Western blot data are representative of four to six independent experiments with similar results.
(§4) The androgen-sensitive LNCaP (ATCC-Nr. CRL-1740D) human prostate carcinoma cell line, the androgen-insensitive PC3 (ATCC-Nr. CRL-1435D) human prostate carcinoma cell line, and neuroblastoma cell line SH-SY5Y (ATCC-Nr. CRL-2266) were purchased from the American Type Culture Collection, and human normal prostate epithelial cell line PNT2 was purchased from Sigma-Aldrich (Cat. Nr. 95012613). Cells were expanded and frozen in aliquots within four weeks of purchase. Cells were thawed and cultured for no more than three further passages. PNT2 cells were cultured in medium RPMI1640 supplemented with 10% fetal calf serum, glutamine and antibiotics. All other cells were cultured in Dulbecco's modified Eagle's medium that was supplemented with 5% fetal calf serum, glutamine, and antibiotics. The cells (1.5×10^5) were seeded in culture medium with 2% fetal calf serum 24 hours prior to each experiment.
To further substantiate the role of sAC in cell growth and death, the sAC gene expression/sAC protein production was suppressed in LNCaP cells. Two different methods of sAC knockdown, lipofectamine-based transfection with sAC-specific siRNA or adenoviral transfection with shRNA, were used to further rule out the possibility of KH7 off-target effects. For lipofectamine-based siRNA transfection, LNCaP cells were treated with siRNA duplexes that consisted of four different predesigned sequences targeting the human sAC mRNA sequence (GenBank Accession No. NM_001167749; Dharmacon, Lafayette, Colo.; catalogue no. L-006353-00,). In the control group, cells were treated with scrambled non-targeting siRNA (Dharmacon, Lafayette, Colo.; catalogue no. D-001810-10). Cells were transfected following the manufacturer's instructions. Briefly, cells were seeded 1 day before transfection in Dulbecco's modified Eagle's medium that was supplemented with 2% fetal calf serum without antibiotics.

For data set [2], the system named is LNCaP cells. Put plainly: LDH activity in the cell culture medium. Type of data set: cell-based, human. To be noted: for effect on cytotoxicity (LDH activity): 24 hours, H-89 3 μmol/L, RpcAMP 100 μmol/L. On the procedure: as §2, §3
The subject of data set [3] is LNCaP cells. Put plainly: FACS-based cell cycle analysis. Set-up: species or system human. The note with it: for effect on distribution of the cell population within the cell cycle: 24 hours, H-89 3 μmol/L, RpcAMP 100 μmol/L.
Excerpt: (§5) Treatment conditions were similar to those described for FIGS. 4A-4D. All Western blot data are representative of three to five independent experiments with similar results.
as §3
To understand the mechanisms responsible for the anti-proliferative effect of sAC inhibition, cell cycle analysis was performed using FACS-based cell cycle analysis. Specifically, LNCaP cells were fixed with 70% alcohol, stained with propidium iodide, and treated with RNase (BD Biosciences, San Jose, Calif.). DNA content was analyzed using a FACSCALIBUR™ flow cytometer (BD Biosciences, San Jose, Calif.) and FLOWJO™ software.

Data set [4] deals with LNCaP cells. Put plainly: Western blot of Rap1-GTP, Rap1, phospho-B-Raf and B-Raf (EPAC activity). Type of data set: cell-based, human. As to the method: as §3
Production of sAC protein in the LNCaP and PC3 prostate carcinoma cell lines was analyzed by Western blot. In particular, cells were lysed in Laemmli buffer containing 2% SDS, 10% glycerol, 5% 2-mercaptoethanol, 0.002% bromphenol blue, and 0.0625 mol/liter Tris-HCl. Equal amounts of total proteins were separated on SDS-polyacrylamide gels and transferred to a nitrocellulose membrane. The following primary antibodies were used: sAC (clones R21 and R40; provided by Dr. J. Buck) and actin (Millipore, Billerica, Mass.). After incubation with peroxidase-linked and horseradish peroxidase-labeled secondary antibodies, specific bands were visualized by chemiluminescence using an ECL Plus kit. Equivalent sample loading was confirmed by stripping the membranes with RESTORE™ Western blot stripping buffer (Thermo Fisher Scientific, Rockford, Ill.), followed by treatment with anti-actin antibody.
To test the role of EPAC in proliferation control, the effects of inhibition of sAC on EPAC activity in LNCaP cells was examined.

For data set [5], the system named is LNCaP cells. Put plainly: Cellular cAMP content after KH7 treatment. Type of data set: cell-based, human. The note with it: 24 hours, dose-dependent. On the procedure:
as §1
as §4, with “experiment. […]” for “experiment.”

Data set [6] relates to PC3 cells. Put plainly: Cellular cAMP content after KH7 treatment. Type of data set: cell-based, human. The note with it: PC3, 24 hours, dose-dependent. On the procedure: as §1
as §4, with “experiment. […]” for “experiment.”

Data set [7] has as its system PC3 cells. Kind of data set: Cell proliferation (cell number per dish). It counts as cell-based, human. To be noted: PC3, 24 hours, dose-dependent. As to the method:
as §1
as §4, with “experiment. […]” for “experiment.”

The subject of another data set is PC3 and LNCaP cells. Put plainly: Cell growth and death analysis after 48 hours KH7 (LDH release, subG1, caspase-3 cleavage). The note with it: 20 μmol/L. It counts as cell-based, human.
Excerpt: as §4
Treatment with KH7 reduced the intracellular cAMP content and suppressed cell proliferation in a dose-dependent manner in both cell lines with a maximal effect at 20 μmol/L, as shown in FIG. 2.
(In general: LDH leaks from cells whose membrane has failed.)

Data set [8] has as its system LNCaP cells. Put plainly: Caspase-3 cleavage (Western blot). It counts as cell-based, human. As to the method: as §2, §5
Production of sAC protein in the LNCaP and PC3 prostate carcinoma cell lines was analyzed by Western blot. In particular, cells were lysed in Laemmli buffer containing 2% SDS, 10% glycerol, 5% 2-mercaptoethanol, 0.002% bromphenol blue, and 0.0625 mol/liter Tris-HCl. Equal amounts of total proteins were separated on SDS-polyacrylamide gels and transferred to a nitrocellulose membrane. The following primary antibodies were used: sAC (clones R21 and R40; provided by Dr. J. Buck) and actin (Millipore, Billerica, Mass.). […]
(In general: In western blotting, separated proteins are transferred to a membrane and probed.)

Another data set deals with tmAC. To be noted: up to 100 μmol/L; cited from earlier work.
Another data set concerns soluble guanylyl cyclase. To be noted: up to 100 μmol/L; cited from earlier work.
For data set [9], the system named is LNCaP cells. Kind of data set: Western blot of proteins controlling cell cycle progression (cyclins, CDK1). To be noted: sAC inhibition.
Experimental: Production of sAC protein in the LNCaP and PC3 prostate carcinoma cell lines was analyzed by Western blot. […] Equal amounts of total proteins were separated on SDS-polyacrylamide gels and transferred to a nitrocellulose membrane. […] After incubation with peroxidase-linked and horseradish peroxidase-labeled secondary antibodies, specific bands were visualized by chemiluminescence using an ECL Plus kit.
To investigate how sAC controls the G2/M transition, the expression of various cyclins and CDK1 was examined via Western blot as described above using the following primary antibodies: CDK1, phospho-CDK1, cyclin B1, cyclin D1, cyclin D3, and cyclin E2.
Where [10] appears, read: co-treatment with KH7, 24 hours.

As to `Nc1ncnc2c1nc(Sc1ccc(Cl)cc1)n2[C@@H]1O[C@@H]2COP(=O)(O)O[C@H]2[C@H]1O` [8-pCPT, 8-pCPT-cAMP], the “effect on proliferation in cells treated with the sAC inhibitor KH7” value in the data set on LNCaP cells [1] (LNCaP) is “prevented”. In the data set with LNCaP cells [2] (setting [10]), the “effect on LDH release induced by sAC inhibition” value is recorded as “prevented”. Further, the “effect on cell cycle block induced by sAC inhibition” value in the data set with LNCaP cells [3] (setting [10]) is “prevented”. In addition, the “effect on KH7-induced change of Rap1-GTP expression” value in the data set on LNCaP cells [4] (co-treatment with KH7) is recorded as “reversed”.
As for `O=S(=O)(NCCNC/C=C/c1ccc(Br)cc1)c1cccc2cnccc12` [H-89], in the data set with LNCaP cells [1] (24 hours), the effect on proliferation result is recorded as “no effect”. Further, the “effect on cytotoxicity (LDH activity)” value in the data set with LNCaP cells [2] is “no effect”. Also, the “effect on distribution of the cell population within the cell cycle” value with LNCaP cells [3] is “no effect”.
Regarding `CC(Sc1nc2ccccc2[nH]1)C(=O)N/N=C/c1cc(Br)ccc1O` (stereo not drawn) [KH7, (E)-2-(1H-benzo[d]imidazol-2-ylthio)-N′-(5-bromo-2-hydroxybenzylidene)propanehydrazide], the “reduction of intracellular cAMP content, concentration of maximal effect” value with LNCaP cells [5] came to 20 µmol/L. The “reduction of intracellular cAMP content, concentration of maximal effect” value in the data set on PC3 cells [6] came out at 20 µmol/L. Further, the “suppression of cell proliferation, concentration of maximal effect” value in the data set with LNCaP cells [1] (LNCaP, 24 hours, dose-dependent) was 20 µmol/L. The “suppression of cell proliferation, concentration of maximal effect” value in the data set with PC3 cells [7] worked out at 20 µmol/L. In addition, the “apoptosis (subG1 population and cleavage of caspase-3)” value in the data set with PC3 and LNCaP cells was “apoptosis”. Besides, the “time at which cleavage of caspase-3 first appeared” value in the data set on LNCaP cells [8] (time course over 48 hours) was determined as 24 h. In addition, in the data set on LNCaP cells [3] (24 hours, or siRNA transfection), the “effect on cell cycle phases” value is “cell cycle arrest at the G2 phase”. Besides, in the data set on LNCaP cells [3] (time course over 48 hours), the “time at which percentage of cells in G2-phase reached maximal value” stood at 24 h and the “time at which percentage of cells in G2-phase started to rise” value is 12 h. Moreover, in the data set on LNCaP cells [4] (18 hours), the “Rap1-GTP (active form of Rap1) expression” value is “significantly depleted” and the “phosphorylation of B-Raf” value was “suppressed”. Moreover, the “expression of Rap1, optical band density as ratio to actin band density” value in the data set with LNCaP cells [4] (KH7 treatment, n=6, 0.79+0.01 in control) is listed as 0.81+0.07. Further, in the data set on LNCaP cells [4] (KH7 treatment, n=8, 1.13+0.06 in control), the “expression of B-Raf, optical band density as ratio to actin band density” value was 1.02+0.04. For the same molecule, the “effect on tmAC” value with tmAC is “no effect”. Also, the “effect on soluble guanylyl cyclase” value with soluble guanylyl cyclase is on record as “no effect”. In addition, in the data set on LNCaP cells [9], the “expression of cyclin D1” value was “not altered”, the “expression of cyclin D3” value was “not altered” and the “expression of cyclin E2” value is listed as “not altered”.
On to `O=C(Nc1ncnc2c1ncn2[C@@H]1O[C@@H]2COP(=O)(O)O[C@H]2[C@H]1O)c1ccccc1` [N^6-benzoyl-cAMP], for which the effect on proliferation result in the data set with LNCaP cells [1] (24 hours) was “no effect”. For the same molecule, in the data set with LNCaP cells [1] (LNCaP), the “effect on proliferation in cells treated with the sAC inhibitor KH7” value was “no effect”.
As to `Nc1ncnc2c1ncn2[C@@H]1O[C@@H]2CO[P@@](O)(=S)O[C@H]2[C@H]1O` [RpcAMP, (Rp)-cAMP-S], the effect on proliferation entry in the data set with LNCaP cells [1] (24 hours) is “no effect”. For the same molecule, the “effect on cytotoxicity (LDH activity)” value in the data set on LNCaP cells [2] is “no effect”. Further, the “effect on distribution of the cell population within the cell cycle” value in the data set on LNCaP cells [3] is on record as “no effect”.

B1: shRNA: adenovirus-driven anti-sAC-directed shRNA, hairpin construct of SEQ ID NO: 10 targeting rat sAC mRNA (nucleic acid)
chain: GGGGTACCAAAAAAGTGGAAAGTGGAACGAAAGCATCTCTTGAATGCTTTCGTTCCACTTTCCACAAACAAGGCTTTTCTCCAAG
As for B1, in the data set with LNCaP cells [1] (LNCaP, 72 hours, reduction from 6.37×10^5), the “cell numbers after sAC knockdown” value is 3.56×10^5. Besides, the “LDH release after sAC knockdown” value with LNCaP cells [2] (72 hours) is given as “induced LDH release”. The “caspase-3 cleavage after sAC knockdown” value with LNCaP cells [8] (72 hours) is “led to caspase-3 cleavage”.

Values taken from US10568869B2, “Methods for diagnosing and treating prostate cancer” (Cornell University, priority 2012, dated 2020).
